Here are results for 1 compound from patent US11999697B2, “Methods and compositions for inhibition of dihydroorotate dehydrogenase” (OHIO STATE INNOVATION FOUNDATION, priority 2018, dated 2024).

The structures appear in SMILES notation.

The subject of experiment [1] is AML cell lines (MOLM13, MV4-11, OCI-AML3). Kind of experiment: Formal synergy analysis (Combenefit, BLISS) with MDM2 inhibitor AMG-232. The experiment is classed as cell-based. Particulars: Cpd3 0-10 μM with AMG-232 0-10 μM. The procedure:
FIGS. 6D-6F show formal synergy analysis following treatment of different cell-lines (as indicated below) with a representative disclosed compound, Cpd3 (0-10 μM), in the presence or absence of an MDM2 inhibitor, AMG-232 (0-10 μM). The formal synergy analysis was carried out using the Combenefit analysis program (Cambridge Research UK, Cambridge Institute, University of Cambridge, United Kingdom; see also Di Veroli G Y, et al. Bioinformatics. 2016; 32:2866-2868). Combenefit analysis software uses the Loewe, Bliss, and HSA (Highest Single Agent) models to generate surface analyses with statistical significance and global metrics/scores. Data shown for the cell-lines in FIGS. 6D-6F were obtained using the BLISS analysis.

Experiment [2] has as its system IDH2-R140Q/Flt3-ITD spleen cells (murine AML). The experiment in a line: IDH2-R140Q/Flt3-ITD adoptive transfer model. The experiment is classed as in vivo, NCG mice. An excerpt:
Leukemic cells derived from a spontaneous murine model of Idh2/Flt3 AML, as reported by Shih et al (Cancer Discov. 7(5):494-505), were engrafted via adoptive transfer to generate an aggressive model of AML suitable for testing of therapeutic agents. Briefly, 6-8 week old mice harboring a heterozygous internal tandem duplication of FMS-like tyrosine kinase 3 (Flt3-ITD), a heterozygous point mutation of isocitrate dehydrogenase 2 (Idh2-R140Q) preceeded by a loxP flanked STOP codon, and Cre recombinase under the MX dynamin like GTPase 1 (Mx1) promoter were injected i.p. with polyinosinic:polycytidylic acid (poly(I:C)), activating Cre recombinase and inducing hematopoietic-specific expression of the Idh2-R140Q mutation. Spleen cells from these mice were collected after the development of lethal AML (defined by study removal criteria), typically 8-14 months post-poly(I:C) injection. 1×10^5 spleen cells from a single leukemic donor were engrafted by tail vein injection into 6 week old immune deficient NOD-Prkdc^em26Cd52//2rg^em26Cd22/NjuCrl mice (NCG; Charles River). At one week post-engraftment, animals were randomized to vehicle (5% EtOH, 10% Kolliphor EL, in PBS), enasidenib (100 mg/kg), and HOSU-3 (50 mg/kg) treatment arms and dosed by daily oral gavage. Personnel responsible for animal monitoring, dosing, and decisions regarding euthanasia were blinded to treatment arms. Survival was assessed using Kaplan-Meier analysis and p-values were determined using the log-rank test and adjusted using Holm's method.

Experiment [3] deals with murine AML cells (Tet2-KO/Flt3-ITD, IDH2-R140Q/Flt3-ITD). The experiment in a line: MTS assay on murine AML bone marrow cells ex vivo. In kind it is cell-based, mice. As to conditions: 0-10 μM, 96 hours. An excerpt: Triplicate wells were set up for each condition.
In particular, the in vivo effects of Cpd3 on the immune repertoire is important in view of previous reports describing DHODH inhibitors as having diverse effects on innate and cellular immune function. FIGS. 9A-9B show representative data for proliferation of murine AML cells in the presence of a representative disclosed compound, Cpd3, compared to a reference compound, brequinar (indicated as “BQR” in the figure). […] Briefly, bone marrow cells were isolated from leukemic Tet2-KO/Flt3-ITD mice (FIG. 9A; N=7) or leukemic IDH2-R140Q/Flt3-ITD mice (FIG. 9B; N=3) were treated ex vivo with Cpd3 or BQR (dose range 0-10 μM). Cell growth was determined at 96 hours relative to the vehicle (DMSO) control using a MTS cell proliferation assay as described herein below.
On the technique in general: Tetrazolium assays rely on reduction of a dye to a coloured formazan, in cell work by metabolically active cells.

Experiment [4] relates to primary human AML cells. The experiment in a line: CyTOF analysis of neutrophil differentiation. In kind it is cell-based. Particulars: 0.5 μM, 7 days, cytokine supplemented media. As for the experimental part:
CyTOF analysis: primary human AML cells were treated with vehicle (DMSO) or Cpd3 (0.5 μM) in the presence of cytokine supplemented media for 7 days. Cells were then incubated with 5-Iodo-2′-deoxyuridine for 10 minutes at 37° C. and fixed with Smart Tube proteomic stabilizer. 1-2×10^6 cells were washed twice with cell staining media (CSM; 0.5% BSA, 0.02% sodium azide in PBS), permeablized with cold, 0.01% saponin in PBS, barcoded using the Cell-ID 20-Plex Pd Barcoding Kit (Fluidigm), incubated for 30 minutes at room temperature, washed again 3× with CSM. Cells were then incubated with Fc blocking reagent (10 minutes at room temperature; RT) after which a cocktail of extracellular antibodies (Table 14 below) were added (50 minutes at RT, with shaking). Cells were washed with CSM, fixed for 15 minutes (10% CSM, 1.5% PFA, in PBS), and washed with CSM. Membrane permeablization was performed with ice cold methanol incubated for 20 minutes at −20° C., followed by washing 1× with PBS and 2× with CSM, and incubation with the intracellular antibody cocktail (Table 10) (50 minutes at RT, with shaking). Cells were then rinsed 2× in CSM, 1× in PBS, and incubated in PBS containing 1.5% PFA and 125 nM iridium intercalator (pentamethylcyclopentadienyl-Ir(III)-dipyridophenazine) (Fluidigm) at 4° C. […]

On to `CCOc1ccc(-c2ccc(-c3cc(C(=O)O)c4cc(F)ccc4n3)cc2)cc1` [Cpd3, 2-(4′-ethoxy-[1,1′-biphenyl]-4-yl)-6-fluoroquinoline-4-carboxylic acid], for which the “synergy with MDM2 inhibitor AMG-232” value in experiment [1] is given as “synergistic cell killing in AML cell lines”. In experiment [2] (50 mg/kg once daily), the “survival compared to vehicle and enasidinib treatment groups” value is recorded as “significant improvement in survival”. For the same compound, the “Median survival” value in experiment [2] (daily oral gavage, Cpd3 50 mg/kg, enasidenib 100 mg/kg) was 42 days. For the same compound, the “potency on murine leukemic cells ex vivo relative to BQR” value in experiment [3] is recorded as “a log fold more potent than BQR”. In addition, the “induction of neutrophil differentiation” value in experiment [4] is “significant induction of neutrophil differentiation”.
